The values below come from paper PMC9569995, “Study of Biological Activities and ADMET-Related Properties of Salicylanilide-Based Peptidomimetics” (International Journal of Molecular Sciences, 2022).

Data set [1] has as its system methicillin-resistant S. aureus SA 630. The data set is described as follows: In vitro antibacterial evaluation, MIC by microtitration broth method. To be noted: Staphylococcus aureus.
Data set [2] deals with vancomycin-resistant E. faecalis VRE 342B. Described as above. To be noted: Enterococcus faecalis.
The subject of data set [3] is Mycobacterium tuberculosis H37Ra/ATCC 25177. The data set is described as follows: In vitro antimycobacterial evaluation, MIC (alamarBlue). To be noted: MT. (In general: The colour change of resazurin is a common sign of viable cells or microbes.)
Data set [4] has as its system methicillin-resistant S. aureus SA 3202. Briefly: In vitro antibacterial evaluation, MIC by microtitration broth method. Conditions: Staphylococcus aureus.
The test system of data set [5] is vancomycin-resistant E. faecalis VRE 725B. The data set is described as above. To be noted: Enterococcus faecalis.
Data set [6] relates to Staphylococcus aureus ATCC 29213. The description is as above.
Data set [7] deals with vancomycin-resistant E. faecalis VRE 368. The data set is described as above. To be noted: Enterococcus faecalis.
Data set [8] relates to human monocytic leukemia cell line THP-1. Briefly: In vitro cell viability analysis (CCK-8). It counts as cell-based. Conditions: ± SD, n = 6, medium with 10% FBS, 24 h. The protocol: Human monocytic leukemia THP-1 cells obtained from the European Collection of Cell Cultures (ECACC, Salisbury, UK) were used for in vitro antiproliferative assays. They were routinely cultured in Roswell Park Memorial Institute RPMI 1640 medium supplemented with 10% fetal bovine serum (FBS), 2% L-glutamine, 1% penicillin, and streptomycin (all from Sigma-Aldrich) at 37 °C with 5% CO2. The cells were incubated in a complete medium (i.e., containing FBS) with test compounds at 37 °C with 5% CO2 for 24 h, similarly as we described previously. The effect of the test compounds dissolved in DMSO on cell viability was determined using a Cell Counting Kit-8 (CCK-8; Sigma) according to the manufacturer’s instructions.

Another data set concerns M. smegmatis ATCC 700084. The data set is described as follows: In vitro antimycobacterial evaluation, MIC (broth dilution micro-method). It is filed as cell-based, Mycobacterium smegmatis. To be noted: Mycolicibacterium smegmatis. Here is the method: For M. smegmatis, the broth dilution micro-method in Middlebrook 7H9 medium (Difco) supplemented with ADC Enrichment (Difco) was used. […] Bacterial inocula were prepared by transferring colonies from culture to sterile water. The cell density was adjusted to 0.5 McFarland units using a densitometer (Densi-La-Meter, LIAP, Riga, Latvia). The final inoculum was made by 1:1000 dilution of the suspension with sterile water. Drug-free controls, sterility controls, and controls consisting of medium and DMSO alone were included. The determination of results was performed visually after three days of static incubation in the darkness at 37 °C in an aerobic atmosphere.
In general terms: Dilution methods test growth across graded concentrations, often in twofold steps.

Data set [9] relates to methicillin-resistant S. aureus 63718. The data set is described as follows: In vitro antibacterial evaluation, MIC by microtitration broth method. To be noted: Staphylococcus aureus.
The test system of data set [10] is Enterococcus faecalis ATCC 29212. The description is as above.
A short description of data set [11]: Lipophilicity determination by HPLC. It is filed as physicochemical. To be noted: for log D6.5: HPLC C18, MeOH 72%/acetate-buffered saline pH 6.5 28%; for log D7.4: HPLC C18, MeOH 72%/acetate-buffered saline pH 7.4 28%; for log k: logarithm of capacity factor, HPLC C18, MeOH 72%/H2O 28%. The source says:
. A chromatographic column Symmetry® C18 5 μm, 4.6 × 250 mm, Part No. W21751W016 (Waters Corp, Milford, MA, USA) was used. The HPLC separation process was monitored by ChemStation for LC 3D systems (Agilent Technologies). Isocratic elution by a mixture of MeOH (HPLC grade, 72%) and H2O-HPLC Mili-Q grade (28%) as a mobile phase was used for the determination of capacity factor k. Isocratic elution by a mixture of MeOH (HPLC grade, 72%) and acetate-buffered saline (pH 7.4 and pH 6.5) (28%) as a mobile phase was used for the determination of distribution coefficient expressed as D7.4 and D6.5. The total flow of the column was 1.0 mL/min, injection was 20 μL, column temperature was 40 °C, and sample temperature was 10 °C. The detection wavelength of 210 nm was chosen. A KI methanolic solution was used for the determination of the dead times (tD). Retention times (tR) were measured in minutes. The capacity factors k were calculated according to the formula k = (tR − tD)/tD, where tR is the retention time of the solute, and tD is the dead time obtained using an unretained analyte. The distribution coefficients DpH were calculated according to the formula DpH = (tR − tD)/tD. Each experiment was repeated three times.

Setting [12] is: ATCC700084, 72 h, MS, three days, 37 °C, read-out: MIC.

Structures are written as SMILES. Like-named read-outs stand apart in the source and are kept apart here.

A word on the MIC: it is the lowest concentration found to suppress growth. Broadly, the IC50 is the point on the concentration scale where inhibition reaches its midpoint. The low end stands for higher potency, the high end for lower potency.

As for `CC(C)C[C@H](NC(=O)c1cc(Cl)ccc1OCc1ccccc1)C(=O)Nc1ccc(C(F)(F)F)cc1` [2f], the MIC in data set [1], in data set [2], in data set [3] (Table S2), in data set [4], in data set [5] and in data set [6] (ATCC29213) was > 256 µg/mL throughout. In addition, the minimal inhibitory concentration (MIC) (in [7]; with M. smegmatis ATCC 700084 (ATCC700084); in [9]; in [10] (ATCC29212)) was > 256 µg/mL in each case. In addition, the IC50 in [8] was > 10 µM. Moreover, the “log D6.5” value in data set [11] amounted to 2.014. Also, the “log D7.4” value in data set [11] is reported as 1.995. This compound also had a log k in data set [11] of 1.975.
Regarding `O=C(N[C@@H](Cc1ccccc1)C(=O)N[C@@H](Cc1ccccc1)C(=O)Nc1ccc(C(F)(F)F)cc1)c1cc(Cl)ccc1OCc1ccccc1` [5c], the MIC in data set [1], in data set [2], in data set [3] (Table S2), in data set [4], in data set [5] and in [6] (ATCC29213) was > 256 µg/mL each time. Moreover, the MIC (in data set [7]; against M. smegmatis ATCC 700084 (ATCC700084); in data set [9]; in data set [10] (ATCC29212)) was > 256 µg/mL in each case. In addition, the IC50 in data set [8] was > 10 µM. In data set [11], the “log D6.5” value came to 2.062. For the same compound, the “log D7.4” value in data set [11] is given as 2.096. In [11], this compound yielded a log k of 2.119.
As for `O=C(N[C@@H](Cc1ccccc1)C(=O)Nc1ccc(C(F)(F)F)cc1)c1cc(Cl)ccc1OCc1ccccc1` [2h], the MIC in data set [1], in [2], in [3] (Table S2), in data set [4], in data set [5] and in data set [6] (ATCC29213) was > 256 µg/mL in each case. The MIC (in data set [7]; with M. smegmatis ATCC 700084 (ATCC700084); in [9]; in data set [10] (ATCC29212)) was > 256 µg/mL in each case. For the same compound, the IC50 in [8] was > 10 µM. For the same compound, in data set [11], the “log D6.5” value is on record as 1.889. For the same compound, in data set [11], the “log D7.4” value turned out to be 1.871. Also, the log k in [11] was determined as 1.852.
Consider `CC(C)[C@H](NC(=O)c1cc(Cl)ccc1OCc1ccccc1)C(=O)Nc1ccc(C(F)(F)F)cc1` [2c, 2-(Benzyloxy)-5-chloro-N-[(2S)-3-methyl-1-oxo-1-{[4-(trifluoromethyl)phenyl]amino}butan-2-yl]benzamide], for which the MIC in [1], in data set [2], in data set [3] (Table S2), in data set [4], in data set [5] and in [6] (ATCC29213) was > 256 µg/mL throughout. In addition, the MIC (in data set [7]; against M. smegmatis ATCC 700084 (ATCC700084); in data set [9]; in data set [10] (ATCC29212)) was > 256 µg/mL each time. Also, in data set [8], the IC50 was > 10 µM. Besides, the “log D6.5” value in data set [11] amounted to 1.711. Besides, in data set [11], the “log D7.4” value stood at 1.697. This compound also came in with a log k in [11] of 1.683.
As for `CC(C)C[C@H](NC(=O)[C@H](Cc1ccccc1)NC(=O)c1cc(Cl)ccc1OCc1ccccc1)C(=O)Nc1ccc(C(F)(F)F)cc1` [5b], the MIC in data set [1], in data set [2], in [3] (Table S2), in [4], in data set [5] and in [6] (ATCC29213) was > 256 µg/mL each time. For the same compound, the MIC (in data set [7]; against M. smegmatis ATCC 700084 (ATCC700084); in data set [9]; in [10] (ATCC29212)) was > 256 µg/mL in each case. In addition, the IC50 in [8] is > 10 µM. In addition, in data set [11], the “log D6.5” value stood at 1.994. In addition, the “log D7.4” value in [11] was found to be 2.027. Moreover, the log k in data set [11] turned out to be 2.049.
As to `CC(C)C[C@H](NC(=O)c1cc(Cl)ccc1OCc1ccccc1)C(=O)N[C@@H](Cc1ccccc1)C(=O)Nc1ccc(C(F)(F)F)cc1` [5a], the MIC in data set [1], in data set [2], in data set [3] (Table S2), in [4], in [5] and in [6] (ATCC29213) was > 256 µg/mL throughout. In addition, the MIC (in data set [7]; against M. smegmatis ATCC 700084 (ATCC700084); in data set [9]; in data set [10] (ATCC29212)) was > 256 µg/mL each time. Moreover, the IC50 in [8] was > 10 µM. Moreover, in [11], the “log D6.5” value turned out to be 1.998. The “log D7.4” value in data set [11] stood at 2.031. In [11], this compound had a log k of 2.053.
With `CCCC[C@H](NC(=O)c1cc(Cl)ccc1OCc1ccccc1)C(=O)Nc1ccc(C(F)(F)F)cc1` [2d, 2-(Benzyloxy)-5-chloro-N-[(2S)-1-oxo-1-{[4-(trifluoromethyl)phenyl]amino}hexan-2-yl]benzamide], the MIC in data set [1], in data set [2], in data set [3] (Table S2), in [4], in [5] and in [6] (ATCC29213) was > 256 µg/mL throughout. For the same compound, the MIC (in data set [7]; in the data set with M. smegmatis ATCC 700084 (ATCC700084); in data set [9]; in data set [10] (ATCC29212)) was > 256 µg/mL in each case. The IC50 in data set [8] was > 10 µM. The “log D6.5” value in data set [11] was 1.954. Moreover, in [11], the “log D7.4” value was found to be 1.902. This compound displayed a log k in data set [11] of 1.898.
As for `CSCC[C@H](NC(=O)c1cc(Cl)ccc1OCc1ccccc1)C(=O)Nc1ccc(C(F)(F)F)cc1` [2e, 2-(Benzyloxy)-5-chloro-N-[(2S)-4-(methylsulfanyl)-1-oxo-1-{[4-(trifluoromethyl)phenyl]amino}butan-2-yl]benzamide], the MIC in data set [1], in data set [2], in data set [3] (Table S2), in [4], in [5] and in [6] (ATCC29213) was > 256 µg/mL in each case. Moreover, the MIC (in data set [7]; in the data set on M. smegmatis ATCC 700084 (ATCC700084); in data set [9]; in data set [10] (ATCC29212)) was > 256 µg/mL in each case. The IC50 in data set [8] is > 10 µM. Also, the “log D6.5” value in data set [11] is recorded as 1.714. For the same compound, the “log D7.4” value in [11] is recorded as 1.689. In [11], this compound gave a log k of 1.668.
In the case of `O=C(N[C@@H](Cc1ccccc1)C(=O)N[C@@H](Cc1ccccc1)C(=O)Nc1ccc(C(F)(F)F)cc1)c1cc(Cl)ccc1O` [6c], the MIC in data set [1] (24 h) is > 256 µg/mL; in data set [2] (24 h), > 256 µg/mL; in data set [3] (14 days, 37 °C), “n.a. n.d. (n.a. = no activity (MIC > 256 µg/mL))”; in data set [4] (24 h) it was > 256 µg/mL; in data set [5] (24 h) it was > 256 µg/mL; in data set [6] (ATCC29213, 24 h) it was > 256 µg/mL. For the same compound, the MIC is > 256 µg/mL in data set [7] (24 h); > 256 µg/mL with M. smegmatis ATCC 700084 (setting [12]); > 256 µg/mL in data set [9] (24 h); > 256 µg/mL in data set [10] (ATCC29212, 24 h). This compound gave an IC50 in data set [8] of 1.3 ± 1.1 µM. Moreover, the “log D6.5” value in [11] is recorded as 1.548. Also, the “log D7.4” value in [11] was 1.495. The compound also gave a log k in [11] of 1.587.
Turning to `NNC(=O)c1ccncc1` [INH, isoniazid, reference compound], the MIC was 36.6 – µM in data set [3] (14 days, 37 °C) and 117 µM with M. smegmatis ATCC 700084 (setting [12]).
